# Key:
# follicular lymphoma = conditions: double-refractory cases; Salles et al., Haematologica 2017; cited from earlier work
# T cells = assay: T-cell activation with immobilized anti-CD3 in the presence of lenalidomide; assay type: cell-based; conditions: lenalidomide 5 or 50 μM with CD3 crosslinking, 3 days, vs no lenalidomide
# Method: T cells were pre-incubated with assay medium or lenalidomide in the absence or presence of CD3 crosslinking by immobilized anti-CD3 for 3 days (as indicated on the x-axes), after which upregulation of CD69, CD25, PD-1 and LAMP-1 on CD4^+ and CD8^+ T cells was determined by flow cytometry. Data shown are geomean fluorescence intensities (FI) for four donors (each circle represents one condition for one donor). Pre-incubation conditions are shown on the x-axis.
# (§1) Briefly, T cells were activated with immobilized anti-CD3 in the presence (5 or 50 μM) or absence of lenalidomide for 3 days. […] T cells that were activated in the presence or absence of lenalidomide were subsequently tested for their cytotoxic capacity in response to epcoritamab.
# CD20 = target: T1, CD20 (Homo sapiens, UniProt P11836); conditions: rituximab versus IgG1-CD20; different epitopes; cited from earlier work
# T1 sequence (P11836 1-297): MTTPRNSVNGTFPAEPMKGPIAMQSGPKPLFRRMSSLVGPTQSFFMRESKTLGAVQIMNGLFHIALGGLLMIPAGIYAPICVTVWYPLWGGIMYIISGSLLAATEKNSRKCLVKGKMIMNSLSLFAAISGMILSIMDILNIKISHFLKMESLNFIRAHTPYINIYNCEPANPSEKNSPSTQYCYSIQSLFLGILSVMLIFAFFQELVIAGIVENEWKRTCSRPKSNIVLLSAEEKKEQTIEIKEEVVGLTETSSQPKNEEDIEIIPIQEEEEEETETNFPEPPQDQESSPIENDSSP
# [1] = tested on: CD20-expressing Daudi cells; assay: T-cell-mediated cytotoxicity assay with lenalidomide-pre-treated T cells; assay type: cell-based; conditions: T cells pre-treated with lenalidomide and anti-CD3; E:T ratio 2:1
# Method: T cells were incubated with (5 or 50 μM) or without lenalidomide in the absence or presence of immobilized anti-CD3 for 3 days. T cells were then used in a cytotoxicity assay with DuoBody-CD3×CD20 or DuoBody-CD3×ctrl (containing a CD3 arm and a non-binding control arm) and CD20-expressing Daudi cells as target cells (E:T ratio 2:1). Data shown are average percentages cytotoxicity±SD of duplicates, normalized to medium control (no antibody, no lenalidomide).
# as §1
# [2] = tested on: CD20-expressing Raji-luc tumor cells; conditions: NOD-SCID mice with Raji-luc cells and PBMCs; even with excess IgG1-RTX-FEAR; cited from earlier work
# [3] = tested on: primary DLBCL and follicular lymphoma patient biopsies; conditions: biopsies taken after administration of an anti-CD20 antibody; cited from earlier work
molecule,measurement,setting,value
CC[C@H](Nc1ncnc2[nH]cnc12)c1nc2cccc(F)c2c(=O)n1-c1ccccc1 [idelalisib],1-year PFS,follicular lymphoma,43%
"Nc1cccc2c1CN(C1CCC(=O)NC1=O)C2=O (stereo not shown) [lenalidomide, 3-(4-Amino-1-oxo-1,3-dihydro-2H-isoindol-2-yl) piperidine-2,6-dione]","T-cell activation (upregulation of CD69, CD25; release of granzyme B and IFNγ)",T cells,increased T-cell activation
IgG1-CD20: CD20 antibody of which the CD20 arm of epcoritamab is derived (7D8),Competition for CD20 binding,CD20,compete for CD20 binding
epcoritamab: IgG1 bispecific CD3×CD20 antibody; heavy/light chain pairs SEQ ID NOs: 24/25 and 26/27; CAS 2134641-34-0,Activity at lower epcoritamab concentrations,[1],higher activity at lower epcoritamab concentrations
same,Maximum percent cytotoxicity,[1],Higher maximum percent cytotoxicity
same,Tumor growth in xenograft model,[2],effectively reduce tumor growth
same,T-cell-mediated cytotoxicity in patient biopsies,[3],induced T-cell-mediated cytotoxicity
